Measurements published in US20140357512A1, “HISTONE DEACETYLASE (HDAC) BIOMARKERS IN MULTIPLE MYELOMA” (priority 2013, published 2014).

System: human myeloma cell line MM.1S
Experiment: Biological pathway analysis of SILAC biomarker peptides against pathway database (broadinstitute gsea)
Method: Once biomarker peptides are identified for a specific drug by the SILAC method, the biomarker peptides may be compared to peptides/proteins in a biological pathway database in order to identify major biological pathways or functions implicated by the drug's action. A preferred pathway analysis website is at www dot broadinstitute dot org/gsea/index dot jsp.
This example describes the biological pathway analysis that was performed on each of Compound A, Compound B, and Tubastatin A.
Once biomarker peptides were identified for a specific drug (either Compound A, Compound B, or Tubastatin A) by the SILAC method in Example 1, the biomarker peptides were compared to peptides/proteins in the biological pathway database at www dot broadinstitute dot org/gsea/index dot jsp in order to identify major biological pathways or functions implicated by the drug's action.

O=C(CCCCCCNC(=O)c1cnc(N(c2ccccc2)c2ccccc2)nc1)NO [Compound A, 2-(diphenylamino)-N-(7-(hydroxyamino)-7-oxoheptyl)pyrimidine-5-carboxamide]
Observed: number of genes in pathway REACTOME_PACKAGING_OF_TELOMERE_ENDS (Pathway_size 48): 35 | Ratio observed/pathway size, REACTOME_PACKAGING_OF_TELOMERE_ENDS (Pathway_size 48): 0.7292 | Observed: number of genes in pathway REACTOME_RNA_POL_I_PROMOTER_OPENING (Pathway_size 61): 49 | Ratio observed/pathway size, REACTOME_RNA_POL_I_PROMOTER_OPENING (Pathway_size 61): 0.8033 | Observed: number of genes in pathway REACTOME_DEPOSITION_OF_NEW_CENPA_CONTAINING_NUCLEOSOMES_AT_THE_CENTROMERE (Pathway_size 64): 34 | Ratio observed/pathway size, REACTOME_DEPOSITION_OF_NEW_CENPA_CONTAINING_NUCLEOSOMES_AT_THE_CENTROMERE (Pathway_size 64): 0.5312 | Observed: number of genes in pathway […]_UNKNOWN (Pathway_size 66): 32 | Ratio observed/pathway size, […]_UNKNOWN (Pathway_size 66): 0.4848 | Observed: number of genes in pathway GCM_TPT1 (Pathway_size 70): 37 | Ratio observed/pathway size, GCM_TPT1 (Pathway_size 70): 0.5286 | Observed: number of genes in pathway REACTOME_MEIOTIC_SYNAPSIS (Pathway_size 71): 35 | Ratio observed/pathway size, REACTOME_MEIOTIC_SYNAPSIS (Pathway_size 71): 0.493 | Observed: number of genes in pathway REACTOME_TELOMERE_MAINTENANCE (Pathway_size 75): 36 | Ratio observed/pathway size, REACTOME_TELOMERE_MAINTENANCE (Pathway_size 75): 0.48 | Observed: number of genes in pathway STRUCTURAL_CONSTITUENT_OF_RIBOSOME (Pathway_size 80): 33 | Ratio observed/pathway size, STRUCTURAL_CONSTITUENT_OF_RIBOSOME (Pathway_size 80): 0.4125 | Observed: number of genes in pathway MIPS_RIBOSOME_CYTOPLASMIC (Pathway_size 81): 42 | Observed: number of genes in pathway REACTOME_AMYLOIDS (Pathway_size 81): 49 | Ratio observed/pathway size, MIPS_RIBOSOME_CYTOPLASMIC (Pathway_size 81): 0.5185 | Ratio observed/pathway size, REACTOME_AMYLOIDS (Pathway_size 81): 0.6049 | Observed: number of genes in pathway REACTOME_MEIOTIC_RECOMBINATION (Pathway_size 84): 50 | Ratio observed/pathway size, REACTOME_MEIOTIC_RECOMBINATION (Pathway_size 84): 0.5952 | Observed: number of genes in pathway REACTOME_RNA_POL_I_TRANSCRIPTION (Pathway_size 86): 50 | Ratio observed/pathway size, REACTOME_RNA_POL_I_TRANSCRIPTION (Pathway_size 86): 0.5814 | Observed: number of genes in pathway KEGG_RIBOSOME (Pathway_size 88): 42 | Ratio observed/pathway size, KEGG_RIBOSOME (Pathway_size 88): 0.4773 | Observed: number of genes in pathway MORF_TPT1 (Pathway_size 102): 40 | Ratio observed/pathway size, MORF_TPT1 (Pathway_size 102): 0.3922 | Observed: number of genes in pathway MIPS_NOP56P_ASSOCIATED_PRE_RRNA_COMPLEX (Pathway_size 104): 44 | Ratio observed/pathway size, MIPS_NOP56P_ASSOCIATED_PRE_RRNA_COMPLEX (Pathway_size 104): 0.4231 | Observed: number of genes in pathway REACTOME_MEIOSIS (Pathway_size 112): 50 | Ratio observed/pathway size, REACTOME_MEIOSIS (Pathway_size 112): 0.4464 | Observed: number of genes in pathway GCM_NPM1 (Pathway_size 116): 41 | Ratio observed/pathway size, GCM_NPM1 (Pathway_size 116): 0.3534 | Observed: number of genes in pathway REACTOME_RNA_POL_I_RNA_POL_III_AND_MITOCHONDRIAL_TRANSCRIPTION (Pathway_size 119): 50 | Ratio observed/pathway size, REACTOME_RNA_POL_I_RNA_POL_III_AND_MITOCHONDRIAL_TRANSCRIPTION (Pathway_size 119): 0.4202 | Observed: number of genes in pathway GNF2_EIF3S6 (Pathway_size 121): 41 | Ratio observed/pathway size, GNF2_EIF3S6 (Pathway_size 121): 0.3388 | Observed: number of genes in pathway GCM_ACTG1 (Pathway_size 124): 39 | Ratio observed/pathway size, GCM_ACTG1 (Pathway_size 124): 0.3145 | Observed: number of genes in pathway MORF_ACTG1 (Pathway_size 138): 53 | Ratio observed/pathway size, MORF_ACTG1 (Pathway_size 138): 0.3841 | Observed: number of genes in pathway KEGG_SYSTEMIC_LUPUS_ERYTHEMATOSUS (Pathway_size 139): 54 | Ratio observed/pathway size, KEGG_SYSTEMIC_LUPUS_ERYTHEMATOSUS (Pathway_size 139): 0.3885 | Observed: number of genes in pathway REACTOME_PEPTIDE_CHAIN_ELONGATION (Pathway_size 145): 41 | Ratio observed/pathway size, REACTOME_PEPTIDE_CHAIN_ELONGATION (Pathway_size 145): 0.2828 | Observed: number of genes in pathway MORF_NME2 (Pathway_size 154): 48 | Ratio observed/pathway size, MORF_NME2 (Pathway_size 154): 0.3117 | Observed: number of genes in pathway REACTOME_INFLUENZA_VIRAL_RNA_TRANSCRIPTION_AND_REPLICATION (Pathway_size 161): 42 | Ratio observed/pathway size, REACTOME_INFLUENZA_VIRAL_RNA_TRANSCRIPTION_AND_REPLICATION (Pathway_size 161): 0.2609 | Observed: number of genes in pathway MORF_NPM1 (Pathway_size 162): 59 | Ratio observed/pathway size, MORF_NPM1 (Pathway_size 162): 0.3642 | Observed: number of genes in pathway REACTOME_3_UTR_MEDIATED_TRANSLATIONAL_REGULATION (Pathway_size 166): 43 | Ratio observed/pathway size, REACTOME_3_UTR_MEDIATED_TRANSLATIONAL_REGULATION (Pathway_size 166): 0.259 | Observed: number of genes in pathway REACTOME_NONSENSE_MEDIATED_DECAY_ENHANCED_BY_THE_EXON_JUNCTION_COMPLEX (Pathway_size 167): 41 | Ratio observed/pathway size, REACTOME_NONSENSE_MEDIATED_DECAY_ENHANCED_BY_THE_EXON_JUNCTION_COMPLEX (Pathway_size 167): 0.2455 | Observed: number of genes in pathway REACTOME_SRP_DEPENDENT_COTRANSLATIONAL_PROTEIN_TARGETING_TO_MEMBRANE (Pathway_size 170): 46 | Ratio observed/pathway size, REACTOME_SRP_DEPENDENT_COTRANSLATIONAL_PROTEIN_TARGETING_TO_MEMBRANE (Pathway_size 170): 0.2706 | Observed: number of genes in pathway REACTOME_INFLUENZA_LIFE_CYCLE (Pathway_size 195): 47 | Ratio observed/pathway size, REACTOME_INFLUENZA_LIFE_CYCLE (Pathway_size 195): 0.241 | Observed: number of genes in pathway MORF_ANP32B (Pathway_size 197): 43 | Ratio observed/pathway size, MORF_ANP32B (Pathway_size 197): 0.2183 | Observed: number of genes in pathway REACTOME_TRANSCRIPTION (Pathway_size 207): 53 | Ratio observed/pathway size, REACTOME_TRANSCRIPTION (Pathway_size 207): 0.256 | Observed: number of genes in pathway REACTOME_TRANSLATION (Pathway_size 211): 48 | Ratio observed/pathway size, REACTOME_TRANSLATION (Pathway_size 211): 0.2275 | Observed: number of genes in pathway MORF_UBE2I (Pathway_size 238): 55 | Ratio observed/pathway size, MORF_UBE2I (Pathway_size 238): 0.2311 | Observed: number of genes in pathway MORF_RAN (Pathway_size 268): 53 | Ratio observed/pathway size, MORF_RAN (Pathway_size 268): 0.1978 | Observed: number of genes in pathway MODULE_151 (Pathway_size 318): 61 | Ratio observed/pathway size, MODULE_151 (Pathway_size 318): 0.1918 | Observed: number of genes in pathway MODULE_83 (Pathway_size 320): 65 | Ratio observed/pathway size, MODULE_83 (Pathway_size 320): 0.2031 | Observed: number of genes in pathway MODULE_114 (Pathway_size 338): 64 | Ratio observed/pathway size, MODULE_114 (Pathway_size 338): 0.1893 | Observed: number of genes in pathway HSIAO_HOUSEKEEPING_GENES (Pathway_size 389): 87 | Ratio observed/pathway size, HSIAO_HOUSEKEEPING_GENES (Pathway_size 389): 0.2236 | Observed: number of genes in pathway MOOTHA_HUMAN_MITODB_6_2002 (Pathway_size 429): 66 | Ratio observed/pathway size, MOOTHA_HUMAN_MITODB_6_2002 (Pathway_size 429): 0.1538 | Observed: number of genes in pathway MOOTHA_MITOCHONDRIA (Pathway_size 447): 57 | Ratio observed/pathway size, MOOTHA_MITOCHONDRIA (Pathway_size 447): 0.1275 | Observed: number of genes in pathway REACTOME_METABOLISM_OF_PROTEINS (Pathway_size 496): 69 | Ratio observed/pathway size, REACTOME_METABOLISM_OF_PROTEINS (Pathway_size 496): 0.1391 | Observed: number of genes in pathway KIM_BIPOLAR_DISORDER_OLIGODENDROCYTE_DENSITY_CORR_UP (Pathway_size 681): 64 | Ratio observed/pathway size, KIM_BIPOLAR_DISORDER_OLIGODENDROCYTE_DENSITY_CORR_UP (Pathway_size 681): 0.09398 | Observed: number of genes in pathway MARTENS_TRETINOIN_RESPONSE_DN (Pathway_size 841): 69 | Ratio observed/pathway size, MARTENS_TRETINOIN_RESPONSE_DN (Pathway_size 841): 0.08205 | Observed: number of genes in pathway GRADE_COLON_CANCER_UP (Pathway_size 870): 75 | Ratio observed/pathway size, GRADE_COLON_CANCER_UP (Pathway_size 870): 0.08621 | Observed: number of genes in pathway DANG_BOUND_BY_MYC (Pathway_size 1102): 88 | Ratio observed/pathway size, DANG_BOUND_BY_MYC (Pathway_size 1102): 0.07985 | Observed: number of genes in pathway BLALOCK_ALZHEIMERS_DISEASE_DN (Pathway_size 1237): 81 | Ratio observed/pathway size, BLALOCK_ALZHEIMERS_DISEASE_DN (Pathway_size 1237): 0.06548 | Observed: number of genes in pathway CYTOPLASMIC_PART (Pathway_size 1383): 96 | Ratio observed/pathway size, CYTOPLASMIC_PART (Pathway_size 1383): 0.06941 | Observed: number of genes in pathway PUJANA_BRCA1_PCC_NETWORK (Pathway_size 1651): 107 | Ratio observed/pathway size, PUJANA_BRCA1_PCC_NETWORK (Pathway_size 1651): 0.06481 | Observed: number of genes in pathway CYTOPLASM (Pathway_size 2130): 117 | Ratio observed/pathway size, CYTOPLASM (Pathway_size 2130): 0.05493
